Experiment [1] addresses T1, PI3K (p110α/p85α) (Homo sapiens, UniProt P42336).
T1 construct: purchased Carna Biosciences 07CBS-0402A
In words: PI3K Activity Assay (ADP Hunter Plus). The format is biochemical. The protocol: The kinase activity was measured by using the commercial ADP Hunter™ Plus assay available from DiscoveRx (#33-016), which is a homogeneous assay to measure the accumulation of ADP, a universal product of kinase activity. […] Reaction was carried out for 1 hour at 25° C. Reagent A and B were sequentially added to the wells and plates were incubated for 30 min at 37° C. […] Values were normalized against the control activity included for each enzyme (i.e., 100% PI3 kinase activity, without compound). These values were plot against the inhibitor concentration and were fit to a sigmoid dose-response curve by using the Graphad software.

The test system of experiment [2] is phospho-Ser-473-Akt. Briefly: PI3K signalling: AKT phosphorylation inhibition, Western blot analysis. The format is cell-based. To be noted: Homo sapiens, cell assay, read-out: IC50 of AKT Phosphorylation Inhibition (p-AKT cell). As for the experimental part:
Cell culture: The cell lines were obtained from the American Type Culture Collection (ATCC). U2OS (human osteosarcoma) was cultured in Dulbecco's modified Eagle's medium (DMEM). PC3 (human prostate carcinoma), MCF7 (human breast cardinoma), HCT116 (human colon carcinoma), […], U251 (human glyoblastoma) were grown in RPMI. All media were supplemented with 10% fetal bovine serum (FBS) (Sigma) and antibiotics-antimycotics. Cell were maintained in a humidified incubator at 37° C. with 5% CO2 and passaged when confluent using trypsin/EDTA.
AKT phosphorylation Inhibition. Western Blot Analysis: Subconfluent cells were incubated under different conditions and washed twice with TBS prior to lysis. Lysis buffer was added containing 50 mM Tris HCl, 150 mM NaCl, 1% NP-40, 2 mM Na3VO4, 100 mM NaF, 20 mM Na4P2O7 and protease inhibitor cocktail (Roche Molecular Biochemicals). The proteins were resolved on 10% SDS-PAGE and transferred to nitrocellulose membrane (Schleicher & Schuell, Dassel, Germany). The membranes were incubated overnight at 4° C. with antibodies specific for Akt, phospho-Ser-473-Akt (Cell Signaling Technology) and α-tubulin (Sigma), they were washed and then incubated with IRDye800 conjugated anti-mouse and Alexa Fluor 680 goat anti-rabbit IgG secondary antibodies. The bands were visualized using an Odyssey infrared imaging system (Li-Cor Biosciences).
Background: In western blotting, separated proteins are transferred to a membrane and probed.

Where [3] appears, read: quantitative results, read-out: PI3Kα IC50.
Setting [4] is: PI3Kα activity, quantitative results, read-out: PI3Kα IC50.
[5] abbreviates: semi-quantitative results, read-out: PI3Kα IC50 (semi-quantitative class).
The mark [6] stands for this setting: quantitative results of Table 4, read-out: PI3Kα IC50.

Read-outs that look alike come from different tables or passages of the source.

T1 sequence (P42336 whole entry): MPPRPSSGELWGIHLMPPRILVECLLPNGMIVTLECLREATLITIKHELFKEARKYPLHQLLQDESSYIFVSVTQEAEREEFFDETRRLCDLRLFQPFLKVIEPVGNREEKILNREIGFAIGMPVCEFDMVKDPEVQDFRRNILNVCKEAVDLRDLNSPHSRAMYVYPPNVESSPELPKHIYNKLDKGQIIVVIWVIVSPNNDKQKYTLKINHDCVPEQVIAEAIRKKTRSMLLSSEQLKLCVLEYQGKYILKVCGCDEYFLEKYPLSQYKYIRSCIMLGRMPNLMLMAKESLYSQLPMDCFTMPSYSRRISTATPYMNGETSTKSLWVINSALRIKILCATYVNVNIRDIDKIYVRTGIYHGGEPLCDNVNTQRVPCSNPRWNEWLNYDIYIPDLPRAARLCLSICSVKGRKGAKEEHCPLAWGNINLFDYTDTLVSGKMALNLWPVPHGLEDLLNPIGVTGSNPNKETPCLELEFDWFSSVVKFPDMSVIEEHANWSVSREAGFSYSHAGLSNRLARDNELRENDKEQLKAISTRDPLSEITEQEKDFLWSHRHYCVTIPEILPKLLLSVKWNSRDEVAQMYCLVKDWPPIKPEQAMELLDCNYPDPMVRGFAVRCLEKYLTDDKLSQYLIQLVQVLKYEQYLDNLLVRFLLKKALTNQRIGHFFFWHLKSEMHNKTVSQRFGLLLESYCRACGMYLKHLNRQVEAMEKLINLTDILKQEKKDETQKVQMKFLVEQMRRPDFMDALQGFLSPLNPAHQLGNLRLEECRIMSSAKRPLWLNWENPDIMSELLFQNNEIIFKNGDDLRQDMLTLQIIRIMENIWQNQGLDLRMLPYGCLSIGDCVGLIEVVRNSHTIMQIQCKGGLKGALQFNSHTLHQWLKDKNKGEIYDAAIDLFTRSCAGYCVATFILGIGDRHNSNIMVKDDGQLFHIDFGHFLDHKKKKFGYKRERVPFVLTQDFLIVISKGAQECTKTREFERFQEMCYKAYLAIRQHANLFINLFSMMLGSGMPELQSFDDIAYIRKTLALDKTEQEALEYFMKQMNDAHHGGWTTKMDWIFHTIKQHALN
T1 sequence (P27986 whole entry partner): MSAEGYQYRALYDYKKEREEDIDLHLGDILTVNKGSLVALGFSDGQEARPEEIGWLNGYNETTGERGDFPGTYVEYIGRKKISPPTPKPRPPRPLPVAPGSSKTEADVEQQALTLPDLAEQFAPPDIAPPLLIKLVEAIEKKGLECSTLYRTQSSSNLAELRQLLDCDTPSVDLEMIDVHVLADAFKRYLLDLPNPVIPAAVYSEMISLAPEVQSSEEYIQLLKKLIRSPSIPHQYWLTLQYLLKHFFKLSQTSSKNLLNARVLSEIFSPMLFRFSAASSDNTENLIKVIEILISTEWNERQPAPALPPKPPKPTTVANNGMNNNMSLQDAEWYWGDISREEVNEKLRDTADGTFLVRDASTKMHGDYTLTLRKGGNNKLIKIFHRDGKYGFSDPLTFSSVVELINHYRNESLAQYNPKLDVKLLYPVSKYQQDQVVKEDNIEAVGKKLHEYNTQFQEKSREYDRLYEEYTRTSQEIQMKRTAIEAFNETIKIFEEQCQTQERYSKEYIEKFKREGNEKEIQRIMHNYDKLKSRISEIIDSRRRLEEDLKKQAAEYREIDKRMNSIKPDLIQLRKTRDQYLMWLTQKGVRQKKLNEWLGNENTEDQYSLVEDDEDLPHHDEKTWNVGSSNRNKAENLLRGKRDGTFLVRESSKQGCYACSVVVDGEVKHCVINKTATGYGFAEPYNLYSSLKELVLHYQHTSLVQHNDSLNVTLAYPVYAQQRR

A word on the IC50: it is the point on the concentration scale where inhibition reaches its midpoint. On to `CCNC(=O)c1cn2cc(-c3cccc4[nH]ncc34)nc(N3CCOCC3)c2n1` [2-74, N-ethyl-6-(1H-indazol-4-yl)-8-morpholinoimidazo[1,2-a]pyrazine-2-carboxamide], for which the IC50 in experiment [1] (setting [3]) came out at 92 nM; in experiment [2], 37 nM.

Consider `Nc1ncc(-c2cn3cc(C(=O)N[C@H]4CC[C@H](O)CC4)nc3c(N3CCOCC3)n2)cn1` [2-192], for which the IC50 in experiment [1] (setting [4]) came out at 10 nM; in experiment [2], 70 nM.

For `COCCNC(=O)c1cn2cc(-c3cccc4[nH]ncc34)nc(N3CCOCC3)c2n1` [2-186], the IC50 is 66 nM in experiment [1] (setting [4]) and 281 nM in experiment [2].

`Oc1cccc(-c2cn3cc(C(F)(F)F)nc3c(N3CCOCC3)n2)c1` [2-13, 3-(2-(trifluoromethyl)-8-morpholinoimidazo[1,2-a]pyrazin-6-yl)phenol]: the values for the IC50 in experiment [1] (setting [3]), in experiment [1] (setting [5]) and in experiment [2] were 108 nM, 100 to 1000 nM and 714 nM, respectively.

In the case of `CCOC(=O)c1cn2cc(-c3cccc(O)c3)nc(N3CCOCC3)c2n1` [2-01, ethyl 6-(3-hydroxyphenyl)-8-morpholinoimidazo[1,2-a]pyrazine-2-carboxylate], the IC50 in experiment [1] (setting [3]) is 158 nM; in experiment [1] (setting [5]), 100 to 1000 nM; in experiment [2], 132 nM.

For the molecule `C[C@@H]1CN(S(C)(=O)=O)C[C@H](C)N1Cc1cn2cc(-c3cnc(N)nc3)nc(N3CCOCC3)c2n1` [2-219], the IC50 in experiment [1] (setting [4]) is 3 nM; in experiment [2] it was 244 nM.

As for `Nc1ncc(-c2cn3cc(CN4CCOCC4)nc3c(N3CCOCC3)n2)cn1` [2-175], the results for the IC50 in experiment [1] (setting [4]) and in experiment [2] were 83 nM and 469 nM, respectively.

Regarding `CNC(=O)c1cn2cc(-c3cccc4[nH]ncc34)nc(N3CCOCC3)c2n1` [2-79], the results for the half-maximal inhibitory concentration (IC50) in experiment [1] (setting [3]) and in experiment [2] were 110 nM and 42 nM, respectively.

`Cc1ncc(-c2cn3cc(CN4CCN(S(C)(=O)=O)CC4)nc3c(N3CCOCC3)n2)cn1` [2-196]: the figures for the IC50 in experiment [1] (setting [4]) and in experiment [2] were 21 nM and 134 nM, respectively.

Turning to `Nc1ncc(-c2cn3cc(C(=O)NCCN4CCOCC4)nc3c(N3CCOCC3)n2)cn1` [2-164], the concentration for half-maximal inhibition (IC50) is 11 nM in experiment [1] (setting [6]) and 34 nM in experiment [2].

Turning to `CCS(=O)(=O)N1CCN(Cc2cn3cc(-c4cnc(N)nc4)nc(N4CCOCC4)c3n2)CC1` [2-220], the half-maximal inhibitory concentration (IC50) was determined as 13 nM in experiment [1] (setting [4]) and 98 nM in experiment [2].

With `CS(=O)(=O)N1CCN(Cc2cn3cc(-c4cccc(O)c4)nc(N4CCOCC4)c3n2)CC1` [2-10, 1-(4-((6-(3-hydroxyphenyl)-8-morpholinoimidazo[1,2-a]pyrazin-2-yl)methyl)-piperazin-1-yl)sulfonylmethane], the IC50 in experiment [2] came to 48 nM.

In the case of `Cc1cn2c(I)c(-c3cccnc3)nc(N3CCOCC3)c2n1` [2-56, 5-iodo-2-methyl-8-morpholino-6-(pyridin-3-yl)imidazo[1,2-a]pyrazine], in experiment [1] (setting [3]), the IC50 is 253 nM.

As for `CC(=O)NCCNC(=O)c1cn2cc(-c3cccc4[nH]ncc34)nc(N3CCOCC3)c2n1` [2-157], in experiment [1] (setting [6]), the 50% inhibitory concentration (IC50) came to 776 nM.

For the molecule `N#Cc1cn2cc(-c3cccc4[nH]ncc34)nc(N3CCOCC3)c2n1` [2-22, 6-(1H-indazol-4-yl)-8-morpholinoimidazo[1,2-a]pyrazine-2-carbonitrile], the results for the IC50 in experiment [1] (setting [3]) and in experiment [1] (setting [5]) were 618 nM and 100 to 1000 nM, respectively.

On to `Nc1ncc(-c2cn3cc(CN4CCC(O)CC4)nc3c(N3CCOCC3)n2)cn1` [2-229], for which the IC50 in experiment [1] (setting [4]) is 114 nM.

In the case of `Cc1cn2cc(-c3cccc4[nH]ncc34)nc(N3CCOCC3)c2n1` [2-24, 6-(1H-indazol-4-yl)-2-methyl-8-morpholinoimidazo[1,2-a]pyrazine], the IC50 in experiment [1] (setting [3]) was 2600 nM; in experiment [1] (setting [5]), over 1000 nM.

Consider `Cc1cn2cc(-c3cccnc3)nc(N3CCOCC3)c2n1` [2-26, 2-methyl-8-morpholino-6-(pyridin-3-yl)imidazo[1,2-a]pyrazine], for which, in experiment [1] (setting [3]), the IC50 worked out at 10000 nM.

As for `Cc1cn2cc(-c3ccncc3)nc(N3CCOCC3)c2n1` [2-31, 2-methyl-8-morpholino-6-(pyridin-4-yl)imidazo[1,2-a]pyrazine], the IC50 in experiment [1] (setting [3]) was found to be 10000 nM.

`Cc1cn2cc(-c3cccc(O)c3)nc(N3CCOCC3)c2n1` [2-23, 3-(2-methyl-8-morpholinoimidazo[1,2-a]pyrazin-6-yl)phenol]: the IC50 is 96 nM in experiment [1] (setting [3]) and under 100 nM in experiment [1] (setting [5]).

On to `CN1CCN(Cc2cn3cc(-c4cccc(O)c4)nc(N4CCOCC4)c3n2)CC1` [2-07, 3-(2a-((4-methylpiperazin-1-yl)methyl)-8-morpholinoimidazo[1,2-a]pyrazin-6-yl)phenol], for which, in experiment [1] (setting [3]), the 50% inhibitory concentration (IC50) was determined as 27000 nM.

Regarding `CC(C)(C)OC(=O)N1CCC2(CCN(Cc3cn4cc(-c5cccc6[nH]ncc56)nc(N5CCOCC5)c4n3)CC2)CC1` [2-98], the IC50 in experiment [1] (setting [6]) amounted to 7200 nM.

As for `CC(C)(C)OC(=O)N1CCC2(CCN(Cc3cn4cc(-c5cccc6[nH]ncc56)nc(N5CCOCC5)c4n3)C2)CC1` [2-100], in experiment [1] (setting [6]), the IC50 came to 5300 nM.

On to `Cc1nc2c(N3CCOCC3)nc(-c3cccc4[nH]ncc34)cn2c1C1CCN(C)CC1` [2-58, 6-(1H-indazol-4-yl)-2-methyl-3-(1-methylpiperidin-4-yl)-8-morpholinoimidazo[1,2-a]pyrazine], for which the IC50 in experiment [1] (setting [5]) lay in the range of 100 to 1000 nM.

Take `Cc1cnc2c(N3CCOCC3)nc(-c3ccc(NC(=O)Nc4cccc(C(=O)O)c4)cc3)cn12` [2-244]: in experiment [1] (setting [4]), the IC50 was found to be 144 nM.

Take `CC(C)(C)OC(=O)N1CCN(Cc2cn3cc(-c4cccc(O)c4)nc(N4CCOCC4)c3n2)CC1` [2-05, tert-butyl 4-((6-(3-hydroxyphenyl)-8-morpholinoimidazo[1,2-a]pyrazin-2-yl)methyl)-piperazine-1-carboxylate]: the IC50 in experiment [1] (setting [3]) is 476 nM.

Regarding `Cc1cn2cc(-c3cccc(NS(C)(=O)=O)c3)nc(N3CCOCC3)c2n1` [2-28], the IC50 in experiment [1] (setting [3]) was found to be 50000 nM.

For the molecule `CS(=O)(=O)N1CCN(Cc2cn3cc(-c4cccc5[nH]ncc45)nc(N4CCOCC4)c3n2)CC1` [2-17, 6-(1H-indazol-4-yl)-2-((4-sulfonylmethylpiperazin-1-yl)methyl)-8-morpholino-imidazo[1,2-a]pyrazine], the IC50 in experiment [2] turned out to be 391 nM.

Turning to `NC(=O)c1cn2c(Cl)c(-c3c(F)ccc4[nH]cc(Cl)c34)nc(N3CCOCC3)c2n1` [2-106], the IC50 in experiment [1] (setting [6]) came out at 28000 nM.

`CS(=O)(=O)N1CCC2(CCN(Cc3cn4cc(-c5cccc6[nH]ncc56)nc(N5CCOCC5)c4n3)CC2)C1` [2-134]: the IC50 in experiment [1] (setting [6]) turned out to be 5200 nM.

In the case of `COC(=O)CC1COCCN1c1nc(-c2cnc(N)nc2)cn2cc(C)nc12` (stereo not drawn) [2-224], in experiment [1] (setting [4]), the IC50 turned out to be 25400 nM.

In the case of `Cc1cn2c(Cl)c(-c3cccc(O)c3)nc(N3CCOCC3)c2n1` [2-49, 3-(5-chloro-2-methyl-8-morpholinoimidazo[1,2-a]pyrazin-6-yl)phenol], in experiment [1] (setting [5]), the IC50 was 100 to 1000 nM.

With `CC(C)(C)OC(=O)N1CCC2(CCN(Cc3cn4cc(-c5cccc6[nH]ncc56)nc(N5CCOCC5)c4n3)CC2)C1` [2-97], the IC50 in experiment [1] (setting [6]) is 4500 nM.

With `CS(=O)(=O)N1CCN(Cc2cn3cc(-c4cn[nH]c4)nc(N4CCOCC4)c3n2)CC1` [2-90], the IC50 in experiment [1] (setting [6]) is 6000 nM.

As to `C[C@@H]1CN(C(=O)OC(C)(C)C)C[C@H](C)N1Cc1cn2cc(-c3cnc(N)nc3)nc(N3CCOCC3)c2n1` [2-218], the IC50 in experiment [1] (setting [4]) turned out to be 28 nM.

Take `Cc1cn2cc(-c3cccc4[nH]ncc34)nc(-c3ccncc3)c2n1` [2-168]: in experiment [1] (setting [6]), the IC50 amounted to 26000 nM.

Regarding `CN(C)C(=O)c1cn2cc(-c3cccc4[nH]ncc34)nc(N3CCOCC3)c2n1` [2-86], the IC50 in experiment [1] (setting [6]) amounted to 891 nM.

For the molecule `O=C1CC2(CCN(Cc3cn4cc(-c5cccc6[nH]ncc56)nc(N5CCOCC5)c4n3)CC2)CN1` [2-131], in experiment [1] (setting [6]), the IC50 stood at 14000 nM.

Consider `Cc1cn2cc(-c3cncc(O)c3)nc(N3CCOCC3)c2n1` [2-30, 5-(2-methyl-8-morpholinoimidazo[1,2-a]pyrazin-6-yl)pyridin-3-ol], for which the IC50 in experiment [1] (setting [3]) is 235 nM; in experiment [1] (setting [5]), 100 to 1000 nM.

`CS(=O)(=O)N1CCN(Cc2cn3cc(-c4ccc(C(N)=O)cc4)nc(N4CCOCC4)c3n2)CC1` [2-68]: the concentration for half-maximal inhibition (IC50) in experiment [1] (setting [3]) stood at 11000 nM.

For `CC(=O)N1CCN(Cc2cn3cc(-c4cccc(O)c4)nc(N4CCOCC4)c3n2)CC1` [2-06, 1-(4-((6-(3-hydroxyphenyl)-8-morpholinoimidazo[1,2-a]pyrazin-2-yl)methyl)-piperazin-1-yl)ethanone], the IC50 in experiment [1] (setting [3]) is 451 nM; in experiment [1] (setting [5]), 100 to 1000 nM.

Consider `CC(=O)O[C@H](C)C(=O)N1CCN(Cc2cn3cc(-c4cnc(N)nc4)nc(N4CCOCC4)c3n2)CC1` [2-231], for which the IC50 in experiment [1] (setting [4]) turned out to be 85 nM.

As for `NC(=O)c1cn2cc(-c3cccc4[nH]cc(Cl)c34)nc(N3CCOCC3)c2n1` [2-103], the IC50 in experiment [1] (setting [6]) worked out at 34000 nM.

`CN1CCN(C(=O)c2cn3cc(-c4cccc5[nH]ncc45)nc(N4CCOCC4)c3n2)CC1` [2-15, (6-(1H-indazol-4-yl)-8-morpholinoimidazo[1,2-a]pyrazin-2-yl)(4-methylpiperazin-1-yl)methanone]: the values for the IC50 in experiment [1] (setting [3]) and in experiment [1] (setting [5]) were 741 nM and 100 to 1000 nM, respectively.

The values above are taken from patent US8778935B2 (Centro Nacional de Investigaciones Oncologicas (CNIO), priority 2009, dated 2014).
